Experiments:
Assay type in all cases: in vivo
[1] = system: Guinea Pig Chronic Obstructive Pulmonary Disease (COPD) Model; assay: Airway resistance (sRaw) in guinea pig COPD model (cigarette smoke exposure); conditions: for Specific airway resistance (sRaw) % increase from pre value: 1 week of cigarette smoke exposure, mean ± SEM of 8 animals
Protocol: (§1) An evaluation was carried out as follows according to a report of Kosuke MORIZUMI, Junichi FUCHIGAMI et al., 2002, The 75th Annual Meeting of the Japanese Pharmacological Society (2002) Abstract No. P-259, “Study of a chronic obstructive pulmonary disease-Effects of theophylline on respiratory function and lung function of guinea pigs in an exposure of cigarette smoke.”
(§2) Male Hartley strain guinea pigs (purchased from Japan SLC, Inc.) were taken in a cigarette exposure holder (RMH-TUBES, manufactured by Muenster Ltd.) to secure them to an exposure chamber (Flow-past type nose-only inhalation chamber, manufactured by Muenster Ltd.), and allowed to inhale cigarette smoke (Hi-Lite, manufactured by Japan Tobacco Inc.) for 60 minutes per day for 5 days in a week, totally 4 weeks using a smoking exposure equipment (Hamburg II, manufactured by Borgwaldt Technik), while the exposure was carried out for 4 days in the 4th week. • (2) Drug Administrations
(§3) Each 0.5% MC suspension of a test drug was orally administered daily in 5 ml/weight (kg) once a day for 25 days from the first day of the exposure. To a sham-exposure group and a control group was orally administered a 0.5% MC suspension in a similar manner. Any oral administrations were carried out 0.5 to 1 hours before exposures on a cigarette-smoke-exposure day or after measurements when measuring respiratory functions. A drug was not administered on the day for measurement of respiratory functions after finishing the 4th week of the exposure. • (3) Measurements of Airway Resistance
Specific airway resistances (sRaw) in guinea pigs were measured during awakening by double-flow plethysmography using general respiratory function analysis system (PULMOS-I, manufactured by M•I•P•S Corp.). Measurements were carried out before the exposure and on the day after finishing the 1st, 2nd, 3rd and 4th weeks of the exposure. Each 100 breathings of respiratory functions were individually measured, and the average values were obtained as measured values. A rate of change of airway resistances was calculated by the following equation. Rate of change of each measured week (%)=100×(a measured value on each measured date−a measured value before starting exposures of cigarette smoke)/a measured value before starting exposures of cigarette smoke

[2] = system: Guinea Pig Chronic Obstructive Pulmonary Disease (COPD) Model; assay: Histological investigations of lung in guinea pig COPD model; conditions: for Number of animals with grade + (mild): A. Hyperplasia, epithelial cell, bronchus / Number of animals with grade + (mild): B. Cellular exudation, neutrophil/eosinophil, lumen, bronchiole / Number of animals with grade + (mild): C. Thickening, alveolar wall / Number of animals with grade + (mild): D. Accumulation, foamy/macrophage-like cell, alveolus / Number of animals with grade + (mild): E. Cellular infiltration, neutrophil, alveolus / Number of animals with grade ++ (moderate): A. Hyperplasia, epithelial cell, bronchus / Number of animals with grade ++ (moderate): B. Cellular exudation, neutrophil/eosinophil, lumen, bronchiole / Number of animals with grade ++ (moderate): C. Thickening, alveolar wall / Number of animals with grade ++ (moderate): D. Accumulation, foamy/macrophage-like cell, alveolus / Number of animals with grade ++ (moderate): E. Cellular infiltration, neutrophil, alveolus / Number of animals with grade +++ (severe): A. Hyperplasia, epithelial cell, bronchus / Number of animals with grade +++ (severe): B. Cellular exudation, neutrophil/eosinophil, lumen, bronchiole / Number of animals with grade +++ (severe): C. Thickening, alveolar wall / Number of animals with grade +++ (severe): D. Accumulation, foamy/macrophage-like cell, alveolus / Number of animals with grade +++ (severe): E. Cellular infiltration, neutrophil, alveolus / Number of animals with grade ± (minimal): A. Hyperplasia, epithelial cell, bronchus / Number of animals with grade ± (minimal): B. Cellular exudation, neutrophil/eosinophil, lumen, bronchiole / Number of animals with grade ± (minimal): C. Thickening, alveolar wall / Number of animals with grade ± (minimal): D. Accumulation, foamy/macrophage-like cell, alveolus / Number of animals with grade ± (minimal): E. Cellular infiltration, neutrophil, alveolus / Number of animals with grade − (none): A. Hyperplasia, epithelial cell, bronchus / Number of animals with grade − (none): B. Cellular exudation, neutrophil/eosinophil, lumen, bronchiole / Number of animals with grade − (none): C. Thickening, alveolar wall / Number of animals with grade − (none): D. Accumulation, foamy/macrophage-like cell, alveolus / Number of animals with grade − (none): E. Cellular infiltration, neutrophil, alveolus: 8 animals
Protocol: as §1, §2, §3
After collection of BALF, trachea and lung were isolated. The ligation site of the left lung was opened, injected neutral formalin buffer into trachea, bronchi and lung at the pressure of 20 cm H2O via cannula fixed on the side of the lung, and the lung tissue was extended to be fixed. According to a conventional method, tissue section samples were produced using posterior lobe of the left lung and hematoxylin-eosin (HE) stain was carried out. Any other lung tissues were stored in neutral formalin buffers. Drug efficacies of the produced tissue samples were evaluated by scoring tissue changes under the microscope. The criteria of scores were shown as follows: −: none, ±: minimal, +: mild, ++: moderate, +++: severe. Each quantification was calculated as 0, 1, 2, 3, 4.

[3] = system: Guinea Pig Chronic Obstructive Pulmonary Disease (COPD) Model; assay: Lung functions (FRC, RV) in guinea pig COPD model; conditions: for Functional residual capacity (FRC) / Residual volume (RV): after 4th week of exposure, mean ± SEM of 8 animals
Protocol: as §1, §2, §3
After measuring airway resistances in the 4th week, animals were cut open their tracheas under urethane-anesthetizing ([…], i.p.), cannulated on the side of lung, fixed by ligation, and measured residual volumes (RV) and functional residual capacities (FRC) by lung functions measuring system (Biosystem for maneuver, manufactured by Buxco Electronics).

[4] = system: Guinea Pig Chronic Obstructive Pulmonary Disease (COPD) Model; assay: Inflammatory cells in bronchoalveolar fluid in guinea pig COPD model; conditions: for Cell number in BALF, Macrophage / Cell number in BALF, Neutrophil / Cell number in BALF, Total: mean ± SEM of 8 animals
Protocol: as §1, §2, §3
After measuring lung functions, animals were exsanguinated to death and opened the thorax, ligated the left bronchial bifurcation, and then injected saline (2.5 mL) into the right lung and aspirated the same via fixed cannula on measuring lung functions repeatedly in twice (totally 5 mL), and the recovery solution was obtained as a bronchoalveolar lavage fluid (BALF). BALF was centrifuged (230×g, 4° C., for 10 minutes) to give cell pellets. The pellets were suspended in saline (0.5 mL), and to a part of the suspension was added Turk solution (manufactured by Wako Pure Chemical Industries, Ltd.) so as to dilute 10 to 20 folds. Leukocyte numbers per 0.1 μL were measured by a blood cell counting chamber and leukocyte numbers per 1 μL were calculated. Cell suspensions were prepared again, smears were prepared using about 2000 to 3000 total cell numbers, May-Grunwald-Giemsa stain was carried out, leukocyte numbers were counted under the microscope, a ratio of each leukocyte number to total leukocyte number was obtained, and each cell number per 1 μL was calculated based on the ratio. Results are shown in each cell number per 1 μL.

[5] = groups of 10 mg/kg and 30 mg/kg, result in words

## CNC(=O)NCCn1c(-c2ccc(N3CCOCC3)cc2)csc1=Nc1cccc(F)c1 [SMP-028, N-{2-[2-[(3-fluorophenyl)imino]-4-(4-morpholinophenyl)-thiazol-3(2H)-yl]ethyl}-N′-methylurea]
[1]; 10 mg/kg/day oral
  Specific airway resistance (sRaw) % increase from pre value: 25.54 ± 10.91%
[1]; 30 mg/kg/day oral
  Specific airway resistance (sRaw) % increase from pre value: 15.02 ± 4.07%
[1]; [5]
  increases of airway resistance by cigarette smoking stimulation: tended to be suppressed
[2]; 10 mg/kg/day for 25 days
  Number of animals with grade + (mild): A. Hyperplasia, epithelial cell, bronchus: 0
  Number of animals with grade + (mild): B. Cellular exudation, neutrophil/eosinophil, lumen, bronchiole: 0
  Number of animals with grade + (mild): C. Thickening, alveolar wall: 2
  Number of animals with grade + (mild): D. Accumulation, foamy/macrophage-like cell, alveolus: 2
  Number of animals with grade + (mild): E. Cellular infiltration, neutrophil, alveolus: 0
  Number of animals with grade ++ (moderate): A. Hyperplasia, epithelial cell, bronchus: 0
  Number of animals with grade ++ (moderate): B. Cellular exudation, neutrophil/eosinophil, lumen, bronchiole: 0
  Number of animals with grade ++ (moderate): C. Thickening, alveolar wall: 0
  Number of animals with grade ++ (moderate): D. Accumulation, foamy/macrophage-like cell, alveolus: 0
  Number of animals with grade ++ (moderate): E. Cellular infiltration, neutrophil, alveolus: 0
  Number of animals with grade +++ (severe): A. Hyperplasia, epithelial cell, bronchus: 0
  Number of animals with grade +++ (severe): B. Cellular exudation, neutrophil/eosinophil, lumen, bronchiole: 0
  Number of animals with grade +++ (severe): C. Thickening, alveolar wall: 0
  Number of animals with grade +++ (severe): D. Accumulation, foamy/macrophage-like cell, alveolus: 0
  Number of animals with grade +++ (severe): E. Cellular infiltration, neutrophil, alveolus: 0
  Number of animals with grade ± (minimal): A. Hyperplasia, epithelial cell, bronchus: 1
  Number of animals with grade ± (minimal): B. Cellular exudation, neutrophil/eosinophil, lumen, bronchiole: 1
  Number of animals with grade ± (minimal): C. Thickening, alveolar wall: 2
  Number of animals with grade ± (minimal): D. Accumulation, foamy/macrophage-like cell, alveolus: 3
  Number of animals with grade ± (minimal): E. Cellular infiltration, neutrophil, alveolus: 0
  Number of animals with grade − (none): A. Hyperplasia, epithelial cell, bronchus: 7
  Number of animals with grade − (none): B. Cellular exudation, neutrophil/eosinophil, lumen, bronchiole: 7
  Number of animals with grade − (none): C. Thickening, alveolar wall: 4
  Number of animals with grade − (none): D. Accumulation, foamy/macrophage-like cell, alveolus: 3
  Number of animals with grade − (none): E. Cellular infiltration, neutrophil, alveolus: 8
[2]; 30 mg/kg/day for 25 days
  Number of animals with grade + (mild): A. Hyperplasia, epithelial cell, bronchus: 0
  Number of animals with grade + (mild): B. Cellular exudation, neutrophil/eosinophil, lumen, bronchiole: 0
  Number of animals with grade + (mild): C. Thickening, alveolar wall: 1
  Number of animals with grade + (mild): D. Accumulation, foamy/macrophage-like cell, alveolus: 2
  Number of animals with grade + (mild): E. Cellular infiltration, neutrophil, alveolus: 0
  Number of animals with grade ++ (moderate): A. Hyperplasia, epithelial cell, bronchus: 0
  Number of animals with grade ++ (moderate): B. Cellular exudation, neutrophil/eosinophil, lumen, bronchiole: 0
  Number of animals with grade ++ (moderate): C. Thickening, alveolar wall: 0
  Number of animals with grade ++ (moderate): D. Accumulation, foamy/macrophage-like cell, alveolus: 0
  Number of animals with grade ++ (moderate): E. Cellular infiltration, neutrophil, alveolus: 0
  Number of animals with grade +++ (severe): A. Hyperplasia, epithelial cell, bronchus: 0
  Number of animals with grade +++ (severe): B. Cellular exudation, neutrophil/eosinophil, lumen, bronchiole: 0
  Number of animals with grade +++ (severe): C. Thickening, alveolar wall: 0
  Number of animals with grade +++ (severe): D. Accumulation, foamy/macrophage-like cell, alveolus: 0
  Number of animals with grade +++ (severe): E. Cellular infiltration, neutrophil, alveolus: 0
  Number of animals with grade ± (minimal): A. Hyperplasia, epithelial cell, bronchus: 0
  Number of animals with grade ± (minimal): B. Cellular exudation, neutrophil/eosinophil, lumen, bronchiole: 0
  Number of animals with grade ± (minimal): C. Thickening, alveolar wall: 2
  Number of animals with grade ± (minimal): D. Accumulation, foamy/macrophage-like cell, alveolus: 3
  Number of animals with grade ± (minimal): E. Cellular infiltration, neutrophil, alveolus: 0
  Number of animals with grade − (none): A. Hyperplasia, epithelial cell, bronchus: 8
  Number of animals with grade − (none): B. Cellular exudation, neutrophil/eosinophil, lumen, bronchiole: 8
  Number of animals with grade − (none): C. Thickening, alveolar wall: 5
  Number of animals with grade − (none): D. Accumulation, foamy/macrophage-like cell, alveolus: 3
  Number of animals with grade − (none): E. Cellular infiltration, neutrophil, alveolus: 8
[2]; [5]
  accumulation of foamy cells/macrophage-like cells within the alveoli and thickening of the alveolar wall: tended to be suppressed
[2]; scores 0-4 for grades − to +++, result in words
  scored pathological findings (FIG. 2) relative to control group: tended to be dose-dependently suppressed
[3]; 10 mg/kg/day oral
  Functional residual capacity (FRC): 7.213 ± 0.374 ^NS mL
  Residual volume (RV): 3.236 ± 0.537 ^NS mL
[3]; 30 mg/kg/day oral
  Functional residual capacity (FRC): 7.066 ± 0.353 ^NS mL
  Residual volume (RV): 2.649 ± 0.649 ^NS mL
[3]; [5]
  increases of functional residual capacity (FRC) and residual volume (RV): tended to be suppressed
[4]; 10 mg/kg/day oral
  Cell number in BALF, Macrophage: 2506 ± 313 ^NS cells/μL
  Cell number in BALF, Neutrophil: 1114 ± 193 ^NS cells/μL
  Cell number in BALF, Total: 4044 ± 419 ^NS cells/μL
[4]; 30 mg/kg/day oral
  Cell number in BALF, Macrophage: 2497 ± 483 ^NS cells/μL
  Cell number in BALF, Neutrophil: 772 ± 277 ^NS cells/μL
  Cell number in BALF, Total: 3897 ± 783 ^NS cells/μL
[4]; [5]
  infiltrations of the inflammatory cells in the airway: tended to be suppressed
